According to US8278263B2, “Method of regulating mammalian target-of-rapamycin activity by interaction between phospholipase D and raptor” (Postech Academy-Industry Foundation, priority 2006, dated 2012):

Key:
S6K1 = tested on: S6K1
Protocol: Until now, the function of PLD2 in nutrient signaling has not been proposed. To this end, the importance of PLD2 in nutrient signaling was tested. […] PLD2^wt was transfected and allowed to express for 24 hr.

mTOR-raptor interaction = assay: Co-IP analysis of the mTOR-raptor interaction; type: cell-based, monkey; details: COS7 cells
phosphorylation of S6K1 = assay: Mitogen-dependent phosphorylation of S6K1 in siRNA-transfected COS7 cells; type: cell-based, monkey; details: siRNA knockdown, 20% BCS
Protocol: The indicated siRNAs were transfected into COS7 cells, and 36 hrs later, cells were deprived of serum for 24 hrs. 20% of BCS was then treated and the resulting lysates were subjected to SDS-PAGE.

[1] = tested on: phosphorylations of S6K1 and 4EBP1; assay: Phosphorylation of S6K1 and 4EBP1 after isozyme-specific PLD siRNA knockdown (western blot); type: cell-based, human; monkey
Description: Pairs of 21-nucleotide sense and antisense RNA oligomers were synthesized and annealed by Dharmacon Research, Inc. (Lafayette, Colo.). The oligonucleotides used for PLD2 were: sense, 5′-AAGAGGUGGCUGGUGGUGAAG-3′ (SEQ ID NO: 9) and antisense, 5′-CUUCACCACCAGCCACCUCUU-3′ (SEQ ID NO: 10), which correspond to human PLD2 coding nucleotides 703-723. The oligonucleotides used for PLD1 were: sense, 5′-AAGGUGGGACGACAAUGAGCA-3′ (SEQ ID NO: 11), and antisense, 5′-UGCUCAUUGUCGUCCCACCUU-3′ (SEQ ID NO: 12), which correspond to human PLD1a coding nucleotides 1455-1475. All siRNA sequences were subjected to BLAST in the NCBI database and complete matches were only found for PLD2 sequences. Luciferase GL2 duplex was purchased from Dharmacon Research, Inc. and was used as a negative control. For add-back experiment for PLD2 silencing, three residues of human PLD2 cDNA (nucleotides 703-723 of PLD2; […]; SEQ ID NO: 13) are substituted to […] for addback mutants of PLD2^wt (Kim, J. H., Kim, J. H., Ohba, M., Suh, P. G., Ryu, S. H. Mol. Cell. Biol. 25 (2005) 3194, which is hereby incorporated by reference). This mutation is silencing mutations. This gene is subcloned into mammalian expression vector pcDNA3.1 (Invitrogen) and digested with restriction enzymes KpnI and XbaI. These mutations are confirmed through nucleotide sequence analysis. […]

S6K1 phosphorylation = assay: Exogenous PA rescue of mTOR signaling in PLD knocked-down cells (SDS-PAGE/western blot); type: cell-based, human; monkey
Protocol: Next, another experiment was conducted to test whether exogenous PA can rescue mTOR signal abrogation in PLD2-knocked-down cells. HEK293 and COS7 cells were transfected with the indicated siRNAs using lipofectamine. After 36 hrs, cells were deprived of serum for 24 hrs. 100 μM of C-6 PA solubilized in DW was then treated for 30 min. Resulting lysates were subject to SDS-PAGE.
The inventor reasoned that if the role of PLD2 in mTOR activation is solely that of PA generation, then the exogenous addition of PA should completely rescue mTOR signaling despite PLD2 expression.

PLD2 = target: T1, PLD2 (Homo sapiens, UniProt O14939); assay: In vivo PLD assay (PBt formation) in response to nutrient levels; type: cell-based; details: PLD2wt transfected cells; leucine-free vs leucine-added media; 0.4% 1-butanol
T1 construct: showing a schematic view of PLD2 N-terminal deleted fragments versus whole PLD2; expressed in transfected cells
T1 sequence (O14939 whole entry R172C/T577I, the tested form may be a part): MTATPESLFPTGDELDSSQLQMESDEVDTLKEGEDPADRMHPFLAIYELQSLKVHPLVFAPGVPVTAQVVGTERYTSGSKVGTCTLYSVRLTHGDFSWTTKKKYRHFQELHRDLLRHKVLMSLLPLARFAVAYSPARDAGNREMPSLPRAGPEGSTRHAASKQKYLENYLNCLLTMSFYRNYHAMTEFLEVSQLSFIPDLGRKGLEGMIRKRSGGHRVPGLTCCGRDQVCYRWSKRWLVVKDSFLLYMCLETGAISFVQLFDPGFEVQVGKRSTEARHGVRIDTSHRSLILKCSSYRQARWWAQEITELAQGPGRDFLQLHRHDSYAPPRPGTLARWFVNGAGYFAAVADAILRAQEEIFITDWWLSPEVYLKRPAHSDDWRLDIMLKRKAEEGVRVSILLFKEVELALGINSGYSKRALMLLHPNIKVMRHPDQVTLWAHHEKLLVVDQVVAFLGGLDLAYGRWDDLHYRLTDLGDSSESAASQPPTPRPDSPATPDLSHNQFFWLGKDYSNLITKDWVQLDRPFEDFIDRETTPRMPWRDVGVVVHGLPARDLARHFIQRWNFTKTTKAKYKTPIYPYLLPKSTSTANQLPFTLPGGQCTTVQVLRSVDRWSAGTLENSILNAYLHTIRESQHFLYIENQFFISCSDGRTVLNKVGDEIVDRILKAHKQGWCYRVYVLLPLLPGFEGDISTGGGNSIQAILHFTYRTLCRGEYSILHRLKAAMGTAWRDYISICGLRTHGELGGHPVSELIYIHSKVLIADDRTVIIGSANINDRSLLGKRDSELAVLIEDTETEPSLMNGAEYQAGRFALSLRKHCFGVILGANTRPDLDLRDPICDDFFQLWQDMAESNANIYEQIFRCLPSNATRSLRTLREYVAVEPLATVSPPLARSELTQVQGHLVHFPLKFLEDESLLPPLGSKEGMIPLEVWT
Protocol: In vivo PLD activity was assayed by measuring the formation of phosphatidyl-butanol as described in “Lee, J. S., Kim, J. H., Jang, I. H., Kim, H. S., Han, J. M., Kazlauskas, A., Yagaisawa, H., Suh, P. G., Ryu, S. H. J. Cell Sci. 118 (2005) 4405,” which is hereby incorporated by reference. In brief, cells were loaded with [^3H]myristic acid (2 μCi/ml) for 8 hrs and then washed twice with DMEM. Labeled cells were incubated with 0.4% butanol for 10 min to measure basal PLD activity. Total lipids were extracted with 1.2 ml of methanol:1 M NaCl:chloroform (1:1:1 by volume) and then separated by thin-layer chromatography on silica gel plates. The amount of [^3H]phosphatidyl-butanol formed was expressed as a percentage of total [^3H]lipid to account for cell labeling efficiency differences.

[2] = tested on: interaction between PLD2 and mTOR; assay: Co-IP with anti-mTOR antibody of PLD2 and mTOR complex; type: cell-based, human; monkey
Protocol: (§1) After harvesting COS7 cells, total extracts were prepared by brief sonication in ice-cold lysis buffer (40 mM HEPES pH7.5, 120 mM NaCl, 1 mM EDTA, 10 mM pyrophosphate, 10 mM glycerophosphate, 50 mM NaF, 1.5 mM Na3VO4, 0.5% CHAPS, 1 mM PMSF, protease inhibitor cocktails). Clarified extracts were mixed with 2 μg of the respective antibodies. Then protein A-Sepharose beads were added to isolate the antibody complex. After four washings with lysis buffer, the final immunoprecipitates were washed once with wash buffer (50 mM HEPES pH7.5, 150 mM NaCl), and then subjected to SDS-PAGE using Hyperfilm (Amersham Pharmacia Biotech), nitrocellulose membranes (Watmann), Power supply (Amersham Pharmacia Biotech), Electrophoretic Transfer unit (Hoefer Scientific Instruments), and ECL™ (Amersham Pharmacia Biotech).

[3] = tested on: binding between PLD2 and raptor; assay: Co-IP of HA-raptor/PLD2 in HEK293 cells after leucine treatment; type: cell-based, human; details: HA-raptorwt/PLD2wt transfected HEK293 cells; leucine treatment after leucine deprivation
Protocol: as §1
Either HA-raptor^wt/PLD2^wt was transfected into HEK293 cells, and the cells were subjected to leucine deprivation. Co-IP after leucine treatment was followed by Western blot analysis. Importantly, the interaction between Rheb and PLD2 was also regulated by nutrient levels such that this interaction was stabilized under high nutrient conditions and weakened under low nutrient conditions, which allowed a nutrient-dependent mTOR complex composed of mTOR, raptor, PLD2, and Rheb to be identified.

## 1-butanol
S6K1
  stimulatory effect of leucine on S6K1: significantly reduced
mTOR-raptor interaction
  modulation of the mTOR-raptor interaction: neither reducing PA generation with 1-butanol nor adding PA modulates

## PLD2 siRNA: 21-nt siRNA duplex SEQ ID NO: 9/10, human PLD2 coding nucleotides 703-723 (chain 1 AAGAGGUGGCUGGUGGUGAAG; chain 2 CUUCACCACCAGCCACCUCUU; RNA, backbone not given here)
Phosphorylation of S6K1
  mitogen-dependent phosphorylation of S6K1: profoundly reduced
[1]; siRNA knockdown, HEK293, OVCAR-3 and COS7 cells, serum-deprived 24 hrs, compared with PLD1 knockdown
  phosphorylations of S6K1 and 4EBP1: dramatically reduced

## CCCCCC(=O)OC[C@H](COP(=O)(O)O)OC(=O)CCCCC [PA, C-6 phosphatidic acid]
mTOR-raptor interaction
  modulation of the mTOR-raptor interaction: neither reducing PA generation with 1-butanol nor adding PA modulates
S6K1 phosphorylation; PLD1 silencing, PA treatment
  rescue of silencing effect of PLD1 on mTOR signaling: completely rescued
S6K1 phosphorylation; PLD2-knocked-down HEK293 and COS7 cells, 100 μM C-6 PA, 30 min
  S6K1 phosphorylation triggered by exogenous PA: could not trigger S6K1 phosphorylation
S6K1 phosphorylation; PLD2 silencing, exogenous PA treatment
  rescue of PLD2 effect on mTOR signaling: not rescued

## CC(C)C[C@H](N)C(=O)O [leucine]
PLD2
  PLD2 activity (PBt formation): reversibly regulated
[2]; leucine treatment in leucine-deprived COS7 and HEK293 cells
  interaction between endogenous PLD2 and endogenous mTOR complex: increased
[3]
  binding between PLD2 and raptor: enhanced binding

## CO[C@H]1C[C@@H]2CC[C@@H](C)[C@@](O)(O2)C(=O)C(=O)N2CCCC[C@H]2C(=O)O[C@H]([C@H](C)C[C@@H]2CC[C@@H](O)[C@H](OC)C2)CC(=O)[C@H](C)/C=C(\C)[C@@H](O)[C@@H](OC)C(=O)[C@H](C)C[C@H](C)/C=C/C=C/C=C/1C [rapamycin]
[2]; mTOR inhibition by rapamycin
  effect on the interaction between PLD2 and mTOR: no effect

## PLD1 siRNA: 21-nt siRNA duplex SEQ ID NO: 11/12, human PLD1a coding nucleotides 1455-1475 (chain 1 AAGGUGGGACGACAAUGAGCA; chain 2 UGCUCAUUGUCGUCCCACCUU; RNA, backbone not given here)
Phosphorylation of S6K1
  mitogen-dependent phosphorylation of S6K1: only a modest effect
[1]; siRNA silencing
  silencing effect on mTOR signaling: modest
